Format in all cases: cell-based
Experiment [1] concerns the target T1, GLP-1 receptor (Homo sapiens, UniProt P43220). The experiment is described as follows: PathHunter β-arrestin assay, GLP-1 receptor. Also on record: host or cells: PathHunter CHO-K1 GLP1R β-Arrestin Cell Line. The conditions noted are these: β-arrestin-2 recruitment, PathHunter CHO-K1 GLP1R β-Arrestin Cell Line, 90 min at 37° C.; normalized to GLP-1; read-out: GLP-1R β Arrestin EC50. In general terms: Arrestin recruitment assays detect the binding of arrestin to an activated receptor.

Experiment [2] deals with T2, GIP receptor (Homo sapiens, UniProt P48546).
T2 sequence (P48546 22-466): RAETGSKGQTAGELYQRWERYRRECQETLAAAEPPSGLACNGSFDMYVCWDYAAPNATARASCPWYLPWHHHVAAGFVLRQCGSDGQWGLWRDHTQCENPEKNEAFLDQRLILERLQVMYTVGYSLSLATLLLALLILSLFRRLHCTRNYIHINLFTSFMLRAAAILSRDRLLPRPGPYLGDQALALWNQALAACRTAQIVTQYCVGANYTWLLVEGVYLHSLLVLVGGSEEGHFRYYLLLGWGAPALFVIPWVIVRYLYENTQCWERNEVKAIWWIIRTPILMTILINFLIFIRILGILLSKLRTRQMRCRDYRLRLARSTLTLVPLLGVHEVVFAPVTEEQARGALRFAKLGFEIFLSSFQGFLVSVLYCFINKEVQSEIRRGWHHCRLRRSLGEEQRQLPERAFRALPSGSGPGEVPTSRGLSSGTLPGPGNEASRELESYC
The experiment is described as follows: HitHunter cAMP assay, GIP receptor. The conditions noted are these: for EC50: CHO cells stably expressing GIP receptor, cAMP accumulation, 30 min, read-out: EC50 GIP-1R; for Emax: CHO cells, cAMP, normalized to maximum signal from GIP (high) and DMSO (low), read-out: Emax GIP-1R.

Experiment [3] concerns the target T1, GLP-1 receptor. The experiment is described as follows: HitHunter cAMP assay, GLP-1 receptor. The note with it: for EC50: CHO cells stably expressing human GLP-1 receptor, cAMP accumulation, 30 min, read-out: EC50 GLP-1R; for Emax: CHO cells, cAMP, normalized to maximum signal from GLP-1 (high) and DMSO (low), read-out: Emax GLP-1R. For orientation: cAMP levels reflect the balance of adenylyl cyclase and phosphodiesterase activity.

In experiment [4] the target is T2, GIP receptor. Kind of experiment: PathHunter β-arrestin assay, GIP receptor. Also on record: host or cells: PathHunter CHO-K1 GIPR β-Arrestin Cell Line. The conditions noted are these: β-arrestin-2 recruitment, PathHunter CHO-K1 GIPR β-Arrestin Cell Line, 90 min at 37° C.; normalized to GIP; read-out: GIPR β Arrestin EC50.

Molecules are shown by their SMILES. *1 amine or outer side, *2 acyl side, *3 side chain or, on linkers, in order; H or OH if unused. Where a SMILES comes first, the peptide text is derived from it. Side-chain parts run from the residue outwards. [ ]: non-standard residue; d: D form. The star is where a group is joined. C20 diacid = O=C(O)CCCCCCCCCCCCCCCCCCC(=O)*; γGlu = O=C(O)[C@H](CCC(=O)[*:2])N[*:1]; X17 = CC(C)(C(=O)*)c1ccc(F)c(F)c1; X77 = CC(C(=O)*)c1cc(F)cc(F)c1; AEEA = NCCOCCOCC(=O)O; Aib = CC(C)(N)C(=O)O; βAla = NCCC(=O)O Some results are limits rather than exact numbers.

T1 sequence (P43220 24-463): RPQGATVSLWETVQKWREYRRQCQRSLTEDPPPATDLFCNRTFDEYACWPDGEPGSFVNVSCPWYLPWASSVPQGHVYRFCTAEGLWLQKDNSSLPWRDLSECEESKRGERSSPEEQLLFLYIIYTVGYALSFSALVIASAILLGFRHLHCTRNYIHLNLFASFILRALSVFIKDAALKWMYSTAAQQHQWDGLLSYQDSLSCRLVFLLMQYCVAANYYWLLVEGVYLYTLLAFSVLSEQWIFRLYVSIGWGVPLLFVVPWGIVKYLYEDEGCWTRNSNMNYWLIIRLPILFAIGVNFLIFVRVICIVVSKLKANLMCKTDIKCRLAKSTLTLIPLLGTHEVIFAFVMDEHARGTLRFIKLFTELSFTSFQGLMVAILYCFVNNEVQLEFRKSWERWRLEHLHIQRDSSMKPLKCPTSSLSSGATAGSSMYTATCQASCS

For the compound `CC[C@H](C)[C@H](NC(=O)[C@H](CC(C)C)NC(=O)[C@H](Cc1c[nH]c2ccccc12)NC(=O)[C@H](CCC(N)=O)NC(=O)[C@@H](NC(=O)[C@H](Cc1ccccc1)NC(=O)[C@H](C)NC(=O)[C@H](CCCCNC(=O)COCCOCCNC(=O)COCCOCCNC(=O)CC[C@H](NC(=O)CCCCCCCCCCCCCCCCCCC(=O)O)C(=O)O)NC(=O)[C@H](CCC(N)=O)NC(=O)[C@H](C)NC(=O)[C@@H](NC(=O)[C@H](CCCCN)NC(=O)[C@H](CC(=O)O)NC(=O)[C@H](CC(C)C)NC(=O)C(C)(C)NC(=O)[C@@H](NC(=O)[C@H](CO)NC(=O)[C@H](Cc1ccc(O)cc1)NC(=O)[C@H](CC(=O)O)NC(=O)[C@H](CO)NC(=O)[C@@H](NC(=O)[C@H](Cc1ccccc1)NC(=O)[C@@H](NC(=O)CNC(=O)[C@H](CCC(=O)O)NC(=O)CCNC(=O)C(C)(C)c1ccc(F)c(F)c1)[C@@H](C)O)[C@@H](C)O)[C@@H](C)CC)[C@@H](C)CC)C(C)C)C(=O)N[C@@H](C)C(=O)NCC(=O)NCC(=O)N1CCC[C@H]1C(=O)N[C@@H](CO)C(=O)N[C@@H](CO)C(=O)NCC(=O)N[C@@H](C)C(=O)N1CCC[C@H]1C(=O)N1CCC[C@H]1C(=O)N1CCC[C@H]1C(=O)N[C@@H](CO)C(N)=O` [Compound 215] ({X17-βAla}-EGTFTSDYSI[Aib]LDKIAQK([AEEA-AEEA-γGlu-C20 diacid])AFVQWLIAGGPSSGAPPPS-NH2), the 50% effective concentration (EC50) was over 1000 nM on GLP-1 receptor [1], 0.1 to 1 nM at GIP receptor [2], 0.1 to 1 nM on GLP-1 receptor [3] and under 1000 nM on GIP receptor [4]. Further, the figures for the maximal effect (Emax) on GIP receptor [2] and on GLP-1 receptor [3] were 99% and 98%, respectively.

Consider `CC[C@H](C)[C@H](NC(=O)[C@H](CC(C)C)NC(=O)[C@H](Cc1c[nH]c2ccccc12)NC(=O)[C@H](CCC(N)=O)NC(=O)[C@@H](NC(=O)[C@H](Cc1ccccc1)NC(=O)[C@H](C)NC(=O)[C@H](CCCCNC(=O)COCCOCCNC(=O)COCCOCCNC(=O)CC[C@H](NC(=O)CCCCCCCCCCCCCCCCCCC(=O)O)C(=O)O)NC(=O)[C@H](CCC(N)=O)NC(=O)[C@H](C)NC(=O)[C@@H](NC(=O)[C@H](CCCCN)NC(=O)[C@H](CC(=O)O)NC(=O)[C@H](CC(C)C)NC(=O)C(C)(C)NC(=O)[C@@H](NC(=O)[C@H](CO)NC(=O)[C@H](Cc1ccc(O)cc1)NC(=O)[C@H](CC(=O)O)NC(=O)[C@H](CO)NC(=O)[C@@H](NC(=O)[C@H](Cc1ccccc1)NC(=O)[C@@H](NC(=O)CNC(=O)[C@H](CCC(=O)O)NC(=O)CCNC(=O)C(C)c1cc(F)cc(F)c1)[C@@H](C)O)[C@@H](C)O)[C@@H](C)CC)[C@@H](C)CC)C(C)C)C(=O)N[C@@H](C)C(=O)NCC(=O)NCC(=O)N1CCC[C@H]1C(=O)N[C@@H](CO)C(=O)N[C@@H](CO)C(=O)NCC(=O)N[C@@H](C)C(=O)N1CCC[C@H]1C(=O)N1CCC[C@H]1C(=O)N1CCC[C@H]1C(=O)N[C@@H](CO)C(N)=O` (stereo partly drawn) [Compound 216] ({X77-βAla}-EGTFTSDYSI[Aib]LDKIAQK([AEEA-AEEA-γGlu-C20 diacid])AFVQWLIAGGPSSGAPPPS-NH2), for which the half-maximal effective concentration (EC50) was over 1000 nM on GLP-1 receptor [1], 10 to 100 nM on GIP receptor [2], 0.1 to 1 nM on GLP-1 receptor [3] and over 1000 nM at GIP receptor [4]. For the same compound, the Emax is 93% at GIP receptor [2] and 102% on GLP-1 receptor [3].

For orientation: EC50 means the midpoint of the concentration-response curve. For orientation: Emax means the greatest response seen or fitted, relative to the assay's reference.
